Experimental data as given in paper PMC4129416, “YLT192, a Novel, Orally Active Bioavailable Inhibitor of VEGFR2 Signaling with Potent Antiangiogenic Activity and Antitumor Efficacy in Preclinical Models” (Scientific Reports, 2014).

Columns and labels:
HUVEC [1] = test: Capillary-like tube formation assay; type: cell-based, human; conditions: designed concentrations; 6 hours; Matrigel
Protocol: To elucidate the possible mechanisms of angiogenesis inhibition, tube formation ability of ECs, which is a critical step in the process of angiogenesis, was assessed in HUVEC in vitro.
The anti-angiogenesis ability of YLT192 in vitro was evaluated using capillary tube formation assay as described previously. Briefly, 96-well plate was pre-incubated with Matrigel at 37°C for 45 minutes. Then HUVECs (2 × 10^4 cells) suspended in EGM2 medium were seeded onto the Matrigel. They were treated with various concentrations of YLT192. After 6 hours incubation at 37°C, tube formation was assessed with an OLYMPUS inverted digital camera in low power fields (50×). Vandetanib served as positive control. The assay was replicated 3 times.

[2] = Body weight of tumor-bearing mice during treatment; type: in vivo; conditions: U251 and HCT116 tumor-bearing mice; 25, 50 and 100 mg/kg oral daily
Protocol: Figure 5 Anti-tumor activities of YLT192 in vivo. (A) U251 and HCT116 tumor-bearing mice were treated orally with YLT192 at 25, 50 and 100 mg/kg or vehicle daily, respectively. […] (B) Body weight changes in YLT192 and vehicle treated mice. […] For A and B, data are means ± SD. (C) and (D), YLT192 inhibited tumor cell proliferation in HCT116 tumor tissues in vivo. Mice bearing HCT116 tumor xenograft were treated with YLT192 at 50 and 100 mg/kg or vehicle and sacrificed at the end of the experiment. The tumor tissues were removed for further immunohistochemistry analysis using anti-Ki67 (C) and anti-p-p44/42 MAPK antibodies (D). (E) YLT192 induced tumor cell apoptosis in HCT116 tumor in vivo. Apoptosis was measured by TUNEL staining (n = 6 mice per group). Scale bars represent 100 μm.
All animal experiments were approved and conducted by the Institutional Animal Care and Treatment Committee of Sichuan University in China (Permit Number: 20121205). […] Tumor growth and body weight was measured every three days during the treatment. Tumor volumes were calculated using the formula as follow: volume (mm^3) = 0.5 × length (mm) × width (mm)^2. Growth inhibition was calculated from the start of treatment by comparison of the mean change in tumor volume for vehicle and treated group as before.

HUVEC [3] = test: Transwell invasion assay; type: cell-based, human; conditions: various concentrations; 24 hours; concentration-dependent
From the text: Cell migration is essential for ECs in angiogenesis and for cancer cells in tumor growth and metastasis. […] Cell invasion is essential for EC in angiogenesis, so we performed transwell assays to evaluate the ability of HUVEC to pass through the Matrigel and membrane barriers of the transwell in the presence of various concentrations of YLT192 or vehicle.
Figure 2 Effects of YLT192 on HUVECs proliferation, migration, invasion and tube formation. […] Cells were wounded by the pipette and then treated with various concentrations of compounds for 24 hours. Migrated cells were quantified by manual counting (50×). […] The bottom chambers of the transwells were filled with 600 μL EGM2 containing various growth factors while the top chambers were seeded with 4 × 10^4 HUVECs in EBM2 and treated with different concentrations of compounds for 24 hours. Cells invaded through the membrane were stained and quantified (100×). […] HUVECs were seeded on Matrigel layer and treated with different concentrations of compounds. HUVECs tube formation was assessed 6 hours later (50×). One representative experiment of three is shown. […]
HUVECs were allowed to grow into full confluence in 24-well plates and then wounded by scratching with pipette tips and washed with PBS. […] Images were taken using a ZEISS digital microscope and invading cells were counted by manual counting. […]

SW620 = test: Inhibition of tumor cell growth; type: cell-based; conditions: SW-620; SW620, human colorectal carcinoma; 48 hour treatment; means ± SD, n=3
From the text: (§1) Data are means ± SD, n=3.
(§2) cell line cell type IC50(μM) […]

MV4-11 = test: Inhibition of tumor cell growth; type: cell-based; conditions: MV4-11, human acute myeloid leukemia; 48 hour treatment; means ± SD, n=3
From the text: as §1, §2

SMMC-7721 = test: Inhibition of tumor cell growth; type: cell-based; conditions: SMMC-7721, human hepatocellular carcinoma; 48 hour treatment; means ± SD, n=3
From the text: as §1, §2

MCF-7 = test: Inhibition of tumor cell growth; type: cell-based; conditions: MCF7; MCF-7, human mammary carcinoma; 48 hour treatment; means ± SD, n=3
From the text: as §1, §2

A431 = test: Inhibition of tumor cell growth; type: cell-based; conditions: A-431; A431, human pidermoid carcinoma; 48 hour treatment; means ± SD, n=3
From the text: as §1, §2

Hela = test: Inhibition of tumor cell growth; type: cell-based; conditions: human epithelial carcinoma, 48 hour treatment, means ± SD, n=3
From the text: as §1, §2

BEL7402 = test: Inhibition of tumor cell growth; type: cell-based; conditions: Bel-7402; BEL7402, human hepatocellular carcinoma; 48 hour treatment; means ± SD, n=3
From the text: as §1, §2

Compound: CNC(=O)c1cc(Oc2ccc(NC(=O)c3cccc(OC)c3)cc2)ccn1 [YLT192]
- tube formation of HUVEC (HUVEC [1]): strongly inhibited
- body weight vs vehicle group [2]: no significant difference
- invasion of HUVECs in transwell assay (HUVEC [3]): significantly inhibited
- IC50 (SW620): 7.9 ± 1.7 µM
- IC50 (MV4-11): 21.9 ± 1.9 µM
- IC50 (SMMC-7721): 12.1 ± 1.6 µM
- IC50 (MCF-7): 16.8 ± 1.7 µM
- IC50 (A431): 7.7 ± 0.9 µM
- IC50 (Hela): 18.9 ± 2.4 µM
- IC50 (BEL7402): 11.3 ± 1.1 µM
